Reference: US20260356824A1, “COMPOUNDS FOR TREATING FIBROTIC DISEASES” (Meta-Immue Inc., priority 2023, published 2026)

Legend:
hLPAR1 = molecular target: T1, hLPAR1 (Homo sapiens, UniProt Q92633); experiment: Ca2+ Flux Assay (B103 cells stably expressing hLPAR1); type: cell-based; conditions: LPA-induced calcium release, Fura-2 AM, compound 20 min at RT
T1 construct: expressed in transfected cells
Experimental: B103 cells stably expressing hLPAR1 were seeded at a density of 1.0×10^5 cells per well in clear flat-bottom black 96-well plates and incubated overnight in complete media. The following day, the cells were pre-incubated in serum-free media for 2 hours prior to ensure cellular equilibration. For the loading a calcium-sensitive fluorescent dye, the cells were treated with a concentration of 5 μM Fura-2 AM dye (Sigma, F1225) in Hank's buffered salt solution (HBSS) supplemented with 20 mM HEPES, […], and 0.3% fatty-acid-free bovine serum albumin for 40 minutes at room temperature (RT). Test compounds, prepared in DMSO, were then added to each well and incubated for 20 minutes at RT. To induce calcium release, a concentration of […] in HBSS supplemented with 20 mM HEPES, and 0.3% fatty-acid-free bovine serum albumin was introduced. Intracellular calcium mobilization was subsequently quantified by monitoring the fluorescence intensity using the Spark® multimode microplate reader (TECAN).

A2058 cells = experiment: Chemotaxis Assay (LPA-induced migration of A2058 cells); type: cell-based; conditions: Homo sapiens, 4 to 8 hours, crystal violet 590 nm
Experimental: For monitoring the migration of cells, Neuroprobe ChemoTx® System plates ([…], 5.7 mm diameter sites; Gaithersburg, MD, USA) were utilized. To induce cell migrations, a concentration of […] or vehicle in DMEM were loaded to the bottom chamber. A total of 15,000 A2058 cells, which were starved for 24 hr following treated with test compounds or vehicle, were then applied to the upper membrane coated with 0.001% fibronectin. The plate was incubated for 4 to 8 hours to allow cell migration. Following incubation, the plate was dissembled, and the migrated cells were visualized by crystal violet staining. The stained area with crystal violet was quantified by measuring the absorbance at 590 nm and the relative percentage of the control was calculated.

T1 sequence (Q92633 whole entry): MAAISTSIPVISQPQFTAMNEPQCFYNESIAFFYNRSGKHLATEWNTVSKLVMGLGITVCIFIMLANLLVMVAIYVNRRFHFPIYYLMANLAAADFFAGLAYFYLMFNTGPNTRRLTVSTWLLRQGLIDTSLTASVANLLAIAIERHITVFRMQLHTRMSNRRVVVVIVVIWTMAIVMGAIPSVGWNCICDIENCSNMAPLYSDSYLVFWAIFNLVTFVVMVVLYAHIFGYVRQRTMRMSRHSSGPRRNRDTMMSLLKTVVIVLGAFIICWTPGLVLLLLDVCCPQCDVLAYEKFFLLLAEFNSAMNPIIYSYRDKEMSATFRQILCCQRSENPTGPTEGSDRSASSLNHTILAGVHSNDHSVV

SMILES | IC50 (hLPAR1) | IC50 (A2058 cells)
Cc1noc(C2CC3(C2)CN(c2ccc(C4(C(=O)NS(=O)(=O)CC(=O)O)CC4)cc2)C3)c1NC(=O)O[C@H](C)c1ccccc1 [Compound 48] | 0.01 to 0.2 µM | < 0.1 µM
Cc1noc(C2CC3(C2)CN(c2ccc(C4(C(=O)NS(=O)(=O)CCCO)CC4)cc2)C3)c1NC(=O)O[C@H](C)c1ccccc1 [Compound 52] | < 0.01 µM | < 0.1 µM
Cc1noc(C2CCN(c3ccc(C4(c5nnn[nH]5)CC4)cc3)CC2)c1NC(=O)O[C@H](C)c1ccccc1 [Compound 88, [(1R)-1-phenylethyl]N-[3-methyl-5-[1-[4-[1-(1H-tetrazol-5-yl)cyclopropyl]phenyl]-4-piperidyl]isoxazol-4-yl]carbamate] | < 0.01 µM | < 0.1 µM
CO[C@@H](C(=O)Nc1c(C)noc1C1CCN(c2ccc(C3(C(=O)O)CC3)cc2)CC1)c1ccccc1 [Compound 47] | 0.2 to 3 µM | 0.5 to 5 µM
Cc1noc(C2CC3(C2)CN(c2ccc(C4(C(=O)NS(=O)(=O)CCC(=O)O)CC4)cc2)C3)c1NC(=O)O[C@H](C)c1ccccc1 [Compound 50] | < 0.01 µM | < 0.1 µM
Cc1noc(C2CCN(c3ccc(C4(C(=O)O)CC4)cc3)CC2)c1NC(=O)OC(C)C1CCCCC1 (centres unmarked) [Compound 96] | 0.01 to 0.2 µM | 0.5 to 5 µM
Cc1cc(NC(=O)O[C@H](C)c2ccccc2)c(C2CCN(c3ccc(C4(C(=O)O)CC4)cc3)CC2)s1 [Compound 91] | ≥ 3 µM | 0.1 to 0.5 µM
COc1c(C)cc(NC(=O)O[C@H](C)c2ccccc2)c(C2CCN(c3ccc(C4(C(=O)O)CC4)cc3)CC2)c1C [Compound 18] | 0.2 to 3 µM | 0.5 to 5 µM
C[C@@H](OC(=O)Nc1cccnc1C1CCN(c2ccc(C3(C(=O)O)CC3)cc2)CC1)c1ccccc1 [Compound 28] | 0.01 to 0.2 µM | 0.5 to 5 µM
Cc1noc(C2CCN(c3ccc(C4(C(=O)O)CC4)cc3)CC2)c1N(C)C(=O)O[C@H](C)c1ccccc1 [Compound 45] | 0.01 to 0.2 µM | 0.1 to 0.5 µM
Cc1noc(C2CCN(c3ccc(C4(C(=O)O)CC4)cc3)CC2)c1NC(=O)OCC1CC1 [Compound 5] | 0.01 to 0.2 µM | 0.5 to 5 µM
Cc1ncnc(C2CCN(c3ccc(C4(C(=O)O)CC4)cc3)CC2)c1NC(=O)O[C@H](C)c1ccccc1 [Compound 29] | 0.2 to 3 µM | 0.5 to 5 µM
Cc1noc(C2CCN(c3ccc(C4(C(=O)O)CC4)cc3)CC2)c1Nc1cccc(-c2ccccc2)n1 [Compound 49] | 0.01 to 0.2 µM | 0.5 to 5 µM
Cc1noc(C2CCN(c3ccc(C4(S(=O)(=O)O)CC4)cc3)CC2)c1NC(=O)O[C@H](C)c1ccccc1 [Compound 89, 1-[4-[4-[3-methyl-4-[[(1R)-1-phenylethoxy]carbonylamino]isoxazol-5-yl]-1-piperidyl]phenyl]cyclopropanesulfonic acid] | < 0.01 µM | 0.1 to 0.5 µM
Cc1ccccc1[C@@H](C)OC(=O)Nc1c(C)noc1C1CC2(C1)CN(c1ccc(C3(C(=O)NS(=O)(=O)CCC(=O)O)CC3)cc1)C2 [Compound 31, 3-({[1-(4-{6-[3-methyl-4-({[(1R)-1-(2-methylphenyl)ethoxy]carbonyl}amino)-1,2-oxazol-5-yl]-2-azaspiro[3.3]heptan-2-yl}phenyl)cyclopropyl]formamido}sulfonyl)propanoic acid] | 0.01 to 0.2 µM | < 0.1 µM
Cc1nsc(C2CCN(c3ccc(C4(C(=O)O)CC4)cc3)CC2)c1NC(=O)O[C@H](C)c1ccccc1F [Compound 43] | 0.01 to 0.2 µM | 0.1 to 0.5 µM
Cc1noc(C2CCN(c3ccc(C4(C(=O)O)CC4)cc3)CC2)c1NC(=O)[C@H](O)c1ccccc1 [Compound 32] | 0.2 to 3 µM | ≥ 5 µM
COc1ccccc1[C@@H](C)OC(=O)N(C)c1c(C)nsc1C1CCN(c2ccc(C3(C(=O)O)CC3)cc2)CC1 [Compound 44] | 0.01 to 0.2 µM | 0.1 to 0.5 µM

Continued, values first:

IC50 (hLPAR1) | IC50 (A2058 cells) | SMILES
< 0.01 µM | 0.5 to 5 µM | COc1cc(C2(C(=O)O)CC2)ccc1N1CCC(c2nnn(C)c2NC(=O)O[C@H](C)c2ccccc2)CC1 [Compound 4]
< 0.01 µM | 0.1 to 0.5 µM | COCc1ccccc1[C@H](C)OC(=O)Nc1c(C2CCN(c3ccc(C4(C(=O)O)CC4)cc3)CC2)nnn1C [Compound 24, (S)-1-(4-(4-(5-(((1-(2-(methoxymethyl)phenyl)ethoxy)carbonyl)amino)-1-methyl-1H-1,2,3-triazol-4-yl)piperidin-1-yl)phenyl)cyclopropane-1-carboxylic acid]
< 0.01 µM | < 0.1 µM | C[C@@H](OC(=O)Nc1c(C2CCN(c3ccc(C4(C(=O)NS(=O)(=O)C5(C(=O)O)CC5)CC4)cc3)CC2)nnn1C)c1ccccc1Cl [Compound 39, 1-[[1-[4-[4-[5-[[(1R)-1-(2-chlorophenyl)ethoxy]carbonylamino]-1-methyl-triazol-4-yl]-1-piperidyl]phenyl]cyclopropanecarbonyl]sulfamoyl]cyclopropanecarboxylic acid]
< 0.01 µM | < 0.1 µM | Cc1noc(C2CCN(c3ccc(C4(C(=O)NS(=O)(=O)C5(CO)CC5)CC4)cc3)CC2)c1NC(=O)O[C@H](C)c1ccccc1 [Compound 77]
< 0.01 µM | < 0.1 µM | C[C@@H](OC(=O)Nc1c(C2CCN(c3ccc(C4(C(=O)O)CC4)cc3)CC2)nnn1C)c1ccccc1Cl [Compound 27, 1-(4-{4-[5-({[(1R)-1-(2-chlorophenyl)ethoxy]carbonyl}amino)-1-methyl-1H-1,2,3-triazol-4-yl]piperidin-1-yl}phenyl)cyclopropane-1-carboxylic acid]
< 0.01 µM | ≥ 5 µM | COc1cc(C2(CNS(=O)(=O)CCC(=O)O)CC2)ccc1N1CCC(c2nnn(C)c2NC(=O)O[C@H](C)c2ccccc2)CC1 [Compound 3]
0.01 to 0.2 µM | 0.5 to 5 µM | Cc1noc(C2CCN(c3ccc(C4(C(=O)O)CC4)cc3)CC2)c1NC(=O)O[C@H](C)c1ccccc1C(C)(C)F [Compound 30]
0.01 to 0.2 µM | < 0.1 µM | Cc1ccccc1[C@@H](C)OC(=O)Nc1c(C2CCN(c3ccc(C4(C(=O)O)CC4)cc3)CC2)cnn1C [Compound 34]
< 0.01 µM | 0.5 to 5 µM | Cc1nnn(C2CCN(c3ccc(C4(C(=O)O)CC4)cc3)CC2)c1NC(=O)O[C@H](C)c1ccccc1 [Compound 53]
< 0.01 µM | < 0.1 µM | Cc1noc(C2CCN(c3ccc(C4(C(=O)NS(=O)(=O)CC5(C)COC5)CC4)cc3)CC2)c1NC(=O)O[C@@H](C)c1ccccc1 [Compound 81]
< 0.01 µM | < 0.1 µM | Cc1noc(C2CCN(c3ccc(C4(C(=O)NS(=O)(=O)C(F)(F)C(N)=O)CC4)cc3)CC2)c1NC(=O)O[C@H](C)c1ccccc1 [Compound 66]
< 0.01 µM | < 0.1 µM | Cc1ccccc1[C@@H](C)OC(=O)Nc1c(C)nsc1C1CCN(c2ccc(C3(C(=O)O)CC3)cc2)CC1 [Compound 36]
0.2 to 3 µM | 0.5 to 5 µM | Cc1nnn(C2CCN(c3ccc(C4(C(=O)NS(=O)(=O)C(F)(F)F)CC4)cc3)CC2)c1NC(=O)O[C@H](C)c1ccccc1 [Compound 15]
< 0.01 µM | < 0.1 µM | COC(=O)C(C)(C)S(=O)(=O)NC(=O)C1(c2ccc(N3CCC(c4onc(C)c4NC(=O)O[C@H](C)c4ccccc4)CC3)cc2)CC1 [Compound 69, methyl 2-methyl-2-[[1-[4-[4-[3-methyl-4-[[(1R)-1-phenylethoxy]carbonylamino]isoxazol-5-yl]-1-piperidyl]phenyl]cyclopropanecarbonyl]sulfamoyl]propanoate]
< 0.01 µM | 0.5 to 5 µM | Cc1nnn(C2CCN(c3ccc(C4(C(=O)O)CC4)cc3)CC2)c1NC(=O)O[C@H](C)c1ccccc1Cl [Compound 51]
< 0.01 µM | 0.1 to 0.5 µM | C[C@@H](OC(=O)Nc1c(C2CCN(c3ccc(C4(C(=O)NS(=O)(=O)CC5(C(=O)O)CC5)CC4)cc3)CC2)nnn1C)c1ccccc1Cl [Compound 41]
< 0.01 µM | < 0.1 µM | C=CCS(=O)(=O)NC(=O)C1(c2ccc(N3CCC(c4onc(C)c4NC(=O)O[C@H](C)c4ccccc4)CC3)cc2)CC1 [Compound 2, (1R)-1-phenylethyl N-{3-methyl-5-[1-(4-{1-[(prop-2-ene-1-sulfonyl)carbamoyl]cyclopropyl}phenyl)piperidin-4-yl]-1,2-oxazol-4-yl}carbamate]
< 0.01 µM | < 0.1 µM | Cc1noc(C2CCN(c3ccc(C4(C(=O)NS(=O)(=O)C5(C(N)=O)CC5)CC4)cc3)CC2)c1NC(=O)O[C@H](C)c1ccccc1 [Compound 73, (1R)-1-phenylethyl N-(5-{1-[4-(1-{[(1-carbamoylcyclopropyl)sulfonyl]carbamoyl}cyclopropyl)phenyl]piperidin-4-yl}-3-methyl-1,2-oxazol-4-yl)carbamate]
0.01 to 0.2 µM | 0.1 to 0.5 µM | C[C@@H](OC(=O)Nc1c(C2CCN(c3ccc(C4(C(=O)NS(=O)(=O)CC(C)(C)C(=O)O)CC4)cc3)CC2)nnn1C)c1ccccc1Cl [Compound 40]
